Test results taken from ChEMBL document CHEMBL4613299, “Optimization of Indazole-Based GSK-3 Inhibitors with Mitigated hERG Issue and In Vivo Activity in a Mood Disorder Model” (ACS Med Chem Lett, 2020).
Values after ≈ are worked out from the molar mass of the structure shown.

Key:
[1] = Half life in CD1 mouse at 10 mg/kg, ip measured up to 7 hrs by LC-MS/MS analysis; type: ADME, organism-based; conditions: in vivo
[2] = Half life in CD mouse pooled liver microsomes at 10 uM incubated in shaking water bath measured up to 60 mins in presence of NADPH by HPLC-MS/MS analysis; type: ADME, Microsome
[3] = Tmax in CD1 mouse at 10 mg/kg, ip measured up to 7 hrs by LC-MS/MS analysis; type: ADME, organism-based; conditions: in vivo
[4] = Cmax in plasma of CD1 mouse at 10 mg/kg, ip measured up to 7 hrs by LC-MS/MS analysis; type: ADME, organism-based; set-up: dose 10 mg/kg, route intraperitoneal
[5] = Half life in human pooled liver microsomes at 10 uM incubated in shaking water bath measured up to 60 mins in presence of NADPH by HPLC-MS/MS analysis; type: ADME, Microsome
[6] = AUC (0 to infinity) in CD1 mouse at 10 mg/kg, ip measured up to 7 hrs by LC-MS/MS analysis; type: ADME, organism-based; set-up: dose 10 mg/kg, time infinity, route intraperitoneal; conditions: in vivo
[7] = Aqueous solubility of compound in PBS buffer at 200 uM and pH 7.4 incubated for 24 hrs under shaking condition by chromatographic analysis; type: physicochemical
[8] = Cmax in brain of CD1 mouse at 10 mg/kg, ip measured up to 7 hrs by LC-MS/MS analysis; type: ADME, organism-based; set-up: dose 10 mg/kg, route intraperitoneal
[9] = AUC (0 to t) in CD1 mouse at 10 mg/kg, ip measured up to 7 hrs by LC-MS/MS analysis; type: ADME, organism-based; set-up: time < 7 hr, dose 10 mg/kg, route intraperitoneal; conditions: in vivo

For `O=C(NCC1CCOCC1)c1n[nH]c2ccc(-c3cncc(CO)c3)cc12`, the half-life [1] was 2 h, the half-life at 10 µM [2] was > 1 h and the Tmax [3] was 0.5 h. The Cmax [4] was 0.949 µg/mL, the half-life at 10 µM [5] was > 1 h and the AUC(0-inf) [6] was 0.791 µg·h/mL. The solubility at 24 h, 200 µM [7] was 200 µM (≈ 73.3 µg/mL), the Cmax [8] was 21.1 ng/g and the AUC(0-t) at 7 h [9] was 0.781 µg·h/mL.
